Measured values published in publication PMC12388506, “Preclinical Evaluation of 2-Aminobenzothiazole Derivatives: In Silico, In Vitro, and Preliminary In Vivo Studies as Diabetic Treatments and Their Complications” (Molecules, 2025).

Experiments:
[1] = system: STZ-HFD-induced T2D Wistar rats; experiment: Ex vivo serum total antioxidant capacity (Trolox equivalent); format: in vivo, rat
Method: At the end of the study, animals fasted for 12 h and were taken to a humane endpoint, where blood samples were obtained. These were kept at room temperature for 30 min and then centrifuged at 4000 RPM for 15 min at 4 °C. Finally, the serum was used to perform 24-element blood chemistry and quantify Trolox-equivalent TAC [86], TNF-α [87], and IL-6 levels using commercial kits from Merck (Darmstadt, Germany), Sigma-Aldrich (St. Louis, MO, USA), Cat. No. MAK334-1KT, RAB0479-1KT, and RAB0311-1KT, respectively. In addition, insulin was quantified using the Rat Ins1/Insulin ELISA Kit, from Sigma-Aldrich, No. Cat. RAB0904-1KT [89] to determine the HOMA-IR index. All kits were performed according to the manufacturer’s instructions without modifications.

male Wistar rat = experiment: Acute oral toxicity, Up and Down procedure (OECD 425); format: in vivo; design: Heart weight / IWA (initial weight of animals) / FWA (final weight of animals) / Spleen weight / Liver weight / Intestine weight / Stomach weight / Kidney weight: unit not given here
Method: All synthesized compounds (8c, 8d, and 12d as a racemic mixture) were suspended in 2% Tween 80 in water and administered orally by an esophageal cannula following the “Up and Down” methodology. Nevertheless, compounds could not be solubilized in the desired volume to complete the highest dose (1750 mg/Kg), so the toxicity test was performed with a maximum dose of 1250 mg/Kg. Even so, the values obtained indicate that these compounds are classified within toxicity category 4 according to the guidelines established by the Organization for Economic Co-operation and Development (OECD).
The “Up and Down” procedure of OECD Guideline 425 was used to estimate the LD50 value of synthesized compounds. Briefly, a dose of 175 mg/Kg was administered to a male Wistar rat, which was monitored continuously for 48 h. As the animal survived, a second animal received a dose of 550 mg/Kg, and, as it survived, a third animal received an increasing dose of 1750 mg/Kg. Finally, two other rats were administered the same dose. All animals were kept under observation for 14 days, and 24 h later, they were taken to the humane endpoint for macroscopic examination of organs and tissues. Finally, the LD50 value of the compounds was estimated to determine their degree of toxicity and classified based on the GHS of Classification and Labeling of Chemicals.

[2] = system: STZ-HFD-induced T2D Wistar rats; experiment: Acute evaluation of blood glucose in STZ-HFD-induced T2D model; format: in vivo, rat; settings: 8d 32 mg/Kg oral
Method: In vivo experiments were conducted in an acute and a subchronic model, where Wistar rats (180–220 g) were used. The study covered a total period of 10 weeks and was carried out under the Mexican Standard, and the “Guide for the Care and Use of Laboratory Animals” of the National Research Council and Health Institutes was followed.
At first, animals were housed in polypropylene cages under conditions of controlled temperature (20–25 °C), relative humidity (36–60%), and light/dark cycles, with water ad libitum. Before starting the experiment, they were given a one-week acclimatization period to adapt to their new habitat. Once finalized, animals were fed an HFD for 3 weeks to generate insulin resistance.
After this period, the animals fasted for 12 h and then were administered intraperitoneally with a single dose of 35 mg/Kg of STZ dissolved in a buffer of 0.1 M citrate, pH 4.5 (prepared on the same day of administration). […]
One week after administration, postprandial blood glucose levels were measured by venipuncture using a glucometer. […]
Once the experimental groups were formed, a fixed schedule was established for the daily oral administration of the respective treatments. […] On the third day of treatment, postprandial blood glucose was measured with a glucometer Freestyle® (Abbott Diabetes Care, Alameda, CA, USA), extracting a drop of blood from the caudal vein of each rat. […]

ALR2 enzyme = biological target: T1, ALR2 enzyme (Homo sapiens, UniProt P15121); experiment: ALR2 activity assay kit (ab273276), inhibition; format: biochemical; settings: Inhibitor concentration;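 also: inhibition calculated from the rate of NADPH cofactor consumption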
T1 construct: purchased ab273276

[3] = 1250 mg/Kg oral, necropsy, mean ± SEM

COC(=O)[C@H](Cc1ccccc1)N/C(=N\c1nc2ccccc2s1)SC [8d, Methyl (E)-((benzo[d]thiazol-2-ylimino)(methylthio)methyl)-L-phenylalaninate]
effect on total antioxidant capacity (TAC) [1]: did not improve TAC | TAC Equivalent to Trolox ([1]; Table S11, After 5 weeks of treatment): 79.26 ± 17.28 µM | TAC Equivalent to Trolox ([1]; serum, end of treatment, mean ± SEM, n = 4): 79.26 ± 17.28 µM | FWA (final weight of animals) (male Wistar rat; 1250 mg/Kg oral, after 14 days, mean ± SEM): 310.57 ± 11.6 | IWA (initial weight of animals) (male Wistar rat; 1250 mg/Kg oral, mean ± SEM): 201.0 ± 7.17 | Heart weight (male Wistar rat; [3]): 1.30 ± 0.03 | Intestine weight (male Wistar rat; [3]): 29.97 ± 0.72 | Kidney weight (male Wistar rat; [3]): 2.97 ± 0.03 | Liver weight (male Wistar rat; [3]): 17.57 ± 0.50 | Spleen weight (male Wistar rat; [3]): 0.67 ± 0.07 | Stomach weight (male Wistar rat; [3]): 1.70 ± 0.10 | toxicity category (OECD) (male Wistar rat; maximum dose 1250 mg/Kg oral): 4 | blood glucose after a single administration, without prior fasting [2]: ~ 200 mg/dL | relative ALR2 inhibition (ALR2 enzyme): 98.000%
